Read-outs that look alike come from different tables or passages of the source.
Tests used:
Assay type in all cases: cell-based
NR2F6 LBD = target: T1, NR2F6 LBD (Homo sapiens, UniProt P10588); experiment: NR2F6 LBD transient transfection; conditions: LBD
T1 construct: expressed in transfected cells
T1 sequence (P10588 165-393 limits assumed): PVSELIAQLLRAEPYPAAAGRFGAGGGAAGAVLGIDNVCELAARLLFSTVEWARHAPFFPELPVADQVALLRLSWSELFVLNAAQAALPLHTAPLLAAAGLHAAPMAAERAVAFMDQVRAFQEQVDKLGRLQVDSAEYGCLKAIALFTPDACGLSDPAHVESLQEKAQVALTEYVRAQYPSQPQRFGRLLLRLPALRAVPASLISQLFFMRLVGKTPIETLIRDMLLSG
Outline: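 LBD-transfected cells treated at 40, 10, 2 and 0.5 μM (4 replicates); cytotoxicity measured in parallel, normalized to DMSO (0%) and zero signal (100%). Higher concentrations excluded where signal loss reflected toxicity.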

HEK293 pGL4 = experiment: Firefly_pGL signal, cmpd/DMSO (pGL4 control cells); conditions: Homo sapiens
Renilla = Renilla signal in NR2F6 agonist screening, cmpd/DMSO; conditions: Renilla, F4
NR2F6 = target: T2, NR2F6 (Homo sapiens, UniProt P10588); experiment: NR2F6 agonist screening, Firefly signal cmpd/DMSO
T2 construct: expressed in transfected cells; also transient transfection
T2 sequence (P10588 1-404): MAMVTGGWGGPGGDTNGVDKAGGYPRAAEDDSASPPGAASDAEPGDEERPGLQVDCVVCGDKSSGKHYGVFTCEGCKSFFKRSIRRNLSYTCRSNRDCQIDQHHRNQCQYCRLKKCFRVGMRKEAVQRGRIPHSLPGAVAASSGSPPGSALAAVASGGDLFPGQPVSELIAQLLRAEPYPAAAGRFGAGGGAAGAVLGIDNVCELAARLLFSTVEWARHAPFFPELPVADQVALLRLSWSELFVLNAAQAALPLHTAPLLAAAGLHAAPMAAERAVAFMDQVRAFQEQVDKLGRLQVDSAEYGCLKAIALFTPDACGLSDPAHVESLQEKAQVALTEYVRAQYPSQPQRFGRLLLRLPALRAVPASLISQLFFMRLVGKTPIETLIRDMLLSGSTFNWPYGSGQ

[1] = HEK293, 0.5 uM, pGL4, read-out: Firefly pGL4, cmpd/DMSO (mean)
[2] = HEK293, 2 uM, pGL4, read-out: Firefly pGL4, cmpd/DMSO (mean)
[3] = HEK293, 10 uM, pGL4, read-out: Firefly pGL4, cmpd/DMSO (mean)
[4] = HEK293, 40 uM, pGL4, read-out: Firefly pGL4, cmpd/DMSO (mean)
[5] = HEK293, pGL4, 1% FBS, 0.5 uM, read-out: Firefly, pGL4, 1% FBS, cmpd/DMSO (mean)
[6] = HEK293, pGL4, 1% FBS, 2 uM, read-out: Firefly, pGL4, 1% FBS, cmpd/DMSO (mean)
[7] = HEK293, pGL4, 1% FBS, 10 uM, read-out: Firefly, pGL4, 1% FBS, cmpd/DMSO (mean)
[8] = HEK293, pGL4, 1% FBS, 40 uM, read-out: Firefly, pGL4, 1% FBS, cmpd/DMSO (mean)
[9] = HEK293, pGL4, 10% FBS, 0.5 uM, read-out: Firefly, pGL4, 10% FBS, cmpd/DMSO (mean)
[10] = HEK293, pGL4, 10% FBS, 2 uM, read-out: Firefly, pGL4, 10% FBS, cmpd/DMSO (mean)
[11] = HEK293, pGL4, 10% FBS, 10 uM, read-out: Firefly, pGL4, 10% FBS, cmpd/DMSO (mean)
[12] = HEK293, pGL4, 10% FBS, 40 uM, read-out: Firefly, pGL4, 10% FBS, cmpd/DMSO (mean)
[13] = read-out: Renilla, F4, cmpd/DMSO (mean)
[14] = 1% FBS, read-out: Renilla, F4, 1% FBS, cmpd/DMSO (mean)
[15] = 10% FBS, read-out: Renilla, F4, 10% FBS, cmpd/DMSO (mean)

SMILES: O=S1(=O)C[C@H](NCCc2cccs2)[C@@H](S(=O)(=O)c2ccc(Cl)cc2)C1 [Compound D128]
- Firefly LBD, cmpd/DMSO (mean) (NR2F6 LBD; 0.5 uM): 1.0
- Firefly LBD, cmpd/DMSO (mean) (NR2F6 LBD; 2 uM): 1.1
- Firefly LBD, cmpd/DMSO (mean) (NR2F6 LBD; 10 uM): 2.4
- Firefly LBD, cmpd/DMSO (mean) (NR2F6 LBD; 40 uM): 2.6
- fold induction at 0.5 µM (HEK293 pGL4; [1]): 1.2
- fold induction at 2 µM (HEK293 pGL4; [2]): 1.6
- fold induction at 10 µM (HEK293 pGL4; [3]): 2.1
- fold induction at 40 µM (HEK293 pGL4; [4]): 1.5
- fold induction at 0.5 µM (HEK293 pGL4; [5]): 1.1
- fold induction at 2 µM (HEK293 pGL4; [6]): 1.3
- fold induction at 10 µM (HEK293 pGL4; [7]): 1.9
- fold induction at 40 µM (HEK293 pGL4; [8]): 1.5
- fold induction at 0.5 µM (HEK293 pGL4; [9]): 0.8
- fold induction at 2 µM (HEK293 pGL4; [10]): 1.1
- fold induction at 10 µM (HEK293 pGL4; [11]): 1.5
- fold induction at 40 µM (HEK293 pGL4; [12]): 1.7
- fold induction at 0.5 µM (Renilla; [13]): 1
- fold induction at 2 µM (Renilla; [13]): 1.2
- fold induction at 10 µM (Renilla; [13]): 1.4
- fold induction at 40 µM (Renilla; [13]): 1.6
- fold induction at 0.5 µM (Renilla; [14]): 1.2
- fold induction at 2 µM (Renilla; [14]): 1.1
- fold induction at 10 µM (Renilla; [14]): 1.6
- fold induction at 40 µM (Renilla; [14]): 1.7
- fold induction at 0.5 µM (Renilla; [15]): 0.9
- fold induction at 2 µM (Renilla; [15]): 1
- fold induction at 10 µM (Renilla; [15]): 1.1
- fold induction at 40 µM (Renilla; [15]): 1.5
- Firefly F4, cmpd/DMSO (mean) (NR2F6; 0.5 uM): 1.1
- Firefly F4, cmpd/DMSO (mean) (NR2F6; 2 uM): 1.7
- Firefly F4, cmpd/DMSO (mean) (NR2F6; 10 uM): 2.7
- Firefly F4, cmpd/DMSO (mean) (NR2F6; 40 uM): 3.5
- F4, Firefly/Renilla for S/B(F4) > 3 (NR2F6; 10% FBS, 40 uM): 2.2
- Firefly, F4/pGL4 for S/B(F4) > 3 (NR2F6; 10% FBS, 40 uM): 1.9
- Firefly, F4, 1% FBS, cmpd/DMSO (mean) (NR2F6; 0.5 uM): 1.2
- Firefly, F4, 1% FBS, cmpd/DMSO (mean) (NR2F6; 2 uM): 1.5
- Firefly, F4, 1% FBS, cmpd/DMSO (mean) (NR2F6; 10 uM): 2.0
- Firefly, F4, 1% FBS, cmpd/DMSO (mean) (NR2F6; 40 uM): 2.0
- Firefly, F4, 10% FBS, cmpd/DMSO (mean) (NR2F6; 10% FBS, 0.5 uM): 0.8
- Firefly, F4, 10% FBS, cmpd/DMSO (mean) (NR2F6; 10% FBS, 2 uM): 0.9
- Firefly, F4, 10% FBS, cmpd/DMSO (mean) (NR2F6; 10% FBS, 10 uM): 1.4
- Firefly, F4, 10% FBS, cmpd/DMSO (mean) (NR2F6; 10% FBS, 40 uM): 3.3

SMILES: Cc1cc(S(=O)(=O)[C@H]2CS(=O)(=O)C[C@@H]2NCC2CCCO2)ccc1F (stereo partly drawn) [Compound D115]
- Firefly LBD, cmpd/DMSO (mean) (NR2F6 LBD; 0.5 uM): 0.9
- Firefly LBD, cmpd/DMSO (mean) (NR2F6 LBD; 2 uM): 0.9
- Firefly LBD, cmpd/DMSO (mean) (NR2F6 LBD; 10 uM): 1.3
- Firefly LBD, cmpd/DMSO (mean) (NR2F6 LBD; 40 uM): 2.2
- fold induction at 0.5 µM (HEK293 pGL4; [1]): 1.2
- fold induction at 2 µM (HEK293 pGL4; [2]): 1.2
- fold induction at 10 µM (HEK293 pGL4; [3]): 1.3
- fold induction at 40 µM (HEK293 pGL4; [4]): 2
- fold induction at 0.5 µM (HEK293 pGL4; [5]): 1.1
- fold induction at 2 µM (HEK293 pGL4; [6]): 1.2
- fold induction at 10 µM (HEK293 pGL4; [7]): 1.2
- fold induction at 40 µM (HEK293 pGL4; [8]): 1.6
- fold induction at 0.5 µM (HEK293 pGL4; [9]): 1.2
- fold induction at 2 µM (HEK293 pGL4; [10]): 1.2
- fold induction at 10 µM (HEK293 pGL4; [11]): 1.6
- fold induction at 40 µM (HEK293 pGL4; [12]): 2.1
- fold induction at 0.5 µM (Renilla; [13]): 1
- fold induction at 2 µM (Renilla; [13]): 1
- fold induction at 10 µM (Renilla; [13]): 1
- fold induction at 40 µM (Renilla; [13]): 1.1
- fold induction at 0.5 µM (Renilla; [14]): 1.1
- fold induction at 2 µM (Renilla; [14]): 1
- fold induction at 10 µM (Renilla; [14]): 1.2
- fold induction at 40 µM (Renilla; [14]): 1.5
- fold induction at 0.5 µM (Renilla; [15]): 1
- fold induction at 2 µM (Renilla; [15]): 1
- fold induction at 10 µM (Renilla; [15]): 1.1
- fold induction at 40 µM (Renilla; [15]): 1.3
- Firefly F4, cmpd/DMSO (mean) (NR2F6; 0.5 uM): 1.0
- Firefly F4, cmpd/DMSO (mean) (NR2F6; 2 uM): 1.1
- Firefly F4, cmpd/DMSO (mean) (NR2F6; 10 uM): 1.4
- Firefly F4, cmpd/DMSO (mean) (NR2F6; 40 uM): 2.2
- Firefly, F4, 1% FBS, cmpd/DMSO (mean) (NR2F6; 0.5 uM): 1.0
- Firefly, F4, 1% FBS, cmpd/DMSO (mean) (NR2F6; 2 uM): 0.8
- Firefly, F4, 1% FBS, cmpd/DMSO (mean) (NR2F6; 10 uM): 1.1
- Firefly, F4, 1% FBS, cmpd/DMSO (mean) (NR2F6; 40 uM): 1.8
- Firefly, F4, 10% FBS, cmpd/DMSO (mean) (NR2F6; 10% FBS, 0.5 uM): 1.5
- Firefly, F4, 10% FBS, cmpd/DMSO (mean) (NR2F6; 10% FBS, 2 uM): 1.3
- Firefly, F4, 10% FBS, cmpd/DMSO (mean) (NR2F6; 10% FBS, 10 uM): 0.7
- Firefly, F4, 10% FBS, cmpd/DMSO (mean) (NR2F6; 10% FBS, 40 uM): 1.3

SMILES: CC1CCN([C@H]2CS(=O)(=O)C[C@@H]2S(=O)(=O)c2ccc(Cl)cc2)CC1 [Compound D125]
- Firefly LBD, cmpd/DMSO (mean) (NR2F6 LBD; 0.5 uM): 1.0
- Firefly LBD, cmpd/DMSO (mean) (NR2F6 LBD; 2 uM): 1.6
- Firefly LBD, cmpd/DMSO (mean) (NR2F6 LBD; 10 uM): 4.6
- Firefly LBD, cmpd/DMSO (mean) (NR2F6 LBD; 40 uM): 0.4
- fold induction at 0.5 µM (HEK293 pGL4; [1]): 1.4
- fold induction at 2 µM (HEK293 pGL4; [2]): 1.9
- fold induction at 10 µM (HEK293 pGL4; [3]): 4.2
- fold induction at 40 µM (HEK293 pGL4; [4]): 0.6
- fold induction at 0.5 µM (Renilla; [13]): 1
- fold induction at 2 µM (Renilla; [13]): 1.3
- fold induction at 10 µM (Renilla; [13]): 1.8
- fold induction at 40 µM (Renilla; [13]): 1.3
- Firefly F4, cmpd/DMSO (mean) (NR2F6; 0.5 uM): 1.3
- Firefly F4, cmpd/DMSO (mean) (NR2F6; 2 uM): 2.3
- Firefly F4, cmpd/DMSO (mean) (NR2F6; 10 uM): 5.6
- Firefly F4, cmpd/DMSO (mean) (NR2F6; 40 uM): 0.9
- Activity, cmpd/DMSO (NR2F6; Table 31): 7.3
